Series [1] is described as follows: Stability in human liver microsomes. Type of series: in vitro ADME. Particulars: pH 7.4; for half-life at 1.5 μM: human liver microsomes 0.5 mg protein/mL, compound 1.5 μM, NADPH, 37° C., read-out: Half-life t1/2; for CLint scaled at 1.5 μM: human liver microsomes, inferred in vivo intrinsic hepatic clearance rate. The procedure: (§1) Biological Example 4 Stability of the Compounds of the Present Invention in Human and Rat Liver Microsomes
(§2) Human or rat liver microsomes were incubated in double wells in polypropylene tubes. A typical incubation mixture included human or rat liver microsomes (final concentration: 0.5 mg protein/mL), target compound (final concentration: 1.5 μM), and K-phosphate buffered solution (containing […] EDTA, 100 mM, pH=7.4) in a total volume of 30 μL. Compounds were dissolved in DMSO and diluted with K-phosphate buffered solution to give a final working solution concentration of 30 μM. After 10 min of pre-incubation, 25 μL of test compound or positive control solution was transferred to the microsomal solution. The mixture was mixed well and 30 μL of the mixture was immediately pipetted, ice-cold acetonitrile was added, then 15 μL of NADPH was added as T0. 15 μL of NADPH (final concentration: 2 mM) was added to 30 μL of the mixture for the enzymatic reaction, and the entire experiment was carried out in an incubation tube at 37° C. At various time points (0, 20 and 60 min), the reaction was stopped by adding 150 μL of acetonitrile (with internal standard). The protein was removed by centrifugation at 4000 rpm for 10 min, and the supernatant was collected and analyzed by LC-MS/MS.
(§3) For each reaction, the concentration of compound in the incubation of human or rat liver microsomes was plotted (expressed as a percentage) as a percentage relative to the zero time point to infer in vitro metabolic half-life and in vivo intrinsic hepatic clearance rate.
A general note: Microsomes from liver hold many membrane-bound enzymes, among them those of drug oxidation.

Series [2] can be described thus: Stability in rat liver microsomes. Type of series: in vitro ADME. Particulars: pH 7.4; for half-life at 1.5 μM: rat liver microsomes 0.5 mg protein/mL, compound 1.5 μM, NADPH, 37° C., read-out: Half-life t1/2; for CLint scaled at 1.5 μM: rat liver microsomes, inferred in vivo intrinsic hepatic clearance rate. The procedure:
as §1, §2, §3

Series [3] in a line: Pharmacokinetic evaluation I in ICR mice. It is filed as in vivo. Conditions: mouse, plasma, po; for bioavailability: p.o. 5 mg/kg, i.v. 1 mg/kg, read-out: Oral bioavailability (F); for AUC(0-t) / Cmax / half-life: 5 mg/kg. The procedure:
Biological Example 2 Pharmacokinetic Evaluation I
ICR mice were weighed after an overnight fast for 15 h, and then randomly divided into groups according to body weight. The test compounds were formulated in a vehicle of 10% DMSO 10% kolliphor HS15^+ 80% Saline. For the test group administered intravenously (indicated by i.v.), the test animals were administered a dose of 1 mg/kg; for the test group administered by oral administration (indicated by p.o.), the test animals were administered a dose of 5 mg/kg. Then, at time points 0, 0.083 (intravenous injection group only), 0.25, 0.5, 1.0, 2.0, 5.0, 7.0 and 24 h, venous blood (approximately 0.2 mL) was collected and placed in an EDTAK2 anticoagulation tube, then centrifuged at 11,000 rpm for 2 min. Plasma was collected and stored at −20° C. or −70° C. until LC/MS/MS analysis. The drug concentration in plasma was measured at each time point, and the pharmacokinetic parameters were calculated according to the drug concentration-time curve.

The target of series [4] is T1, RORγ (Homo sapiens, UniProt P51449).
T1 construct: The concentration of B-RORγ LBD was 40 nM
T1 sequence (P51449 269-508 limits assumed): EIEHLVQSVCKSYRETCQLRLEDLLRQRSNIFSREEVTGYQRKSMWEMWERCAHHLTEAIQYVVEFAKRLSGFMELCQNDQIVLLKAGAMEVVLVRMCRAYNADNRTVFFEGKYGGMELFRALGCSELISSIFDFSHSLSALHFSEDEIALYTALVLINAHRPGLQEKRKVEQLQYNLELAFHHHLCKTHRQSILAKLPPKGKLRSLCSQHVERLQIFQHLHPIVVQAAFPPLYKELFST
The series can be described thus: Fluorescence resonance energy transfer (FRET) test, B-RORγ LBD / Biotin-SRC1. Type of series: biochemical. The procedure:
Biological Example 1 Fluorescence Resonance Energy Transfer (FRET) Test
(1) Preparation of RORγ Test Buffer and 10 mM of DTT
100 mL of 1× Basic test buffer (HEPES (pH 7.4), 100 mM NaCl, 0.01% BSA) was prepared, and 154.25 mg of DTT was added. The mixture was well mixed.
(2) Preparation of Compound with Gradient Concentration
a. Standard compound was prepared: Standard compound was diluted with 100% DMSO to 2.5 mM, then diluted 3-fold with 11 serial dilutions to a final concentration of […];
b. Test compound was prepared referring to the standard compound.
(3) Preparation of 1× Protein Solution Mixture
a. Preparation of the desired amount of 2× B-RORγ LBD/SA-APC protein mixture: The concentration of B-RORγ LBD was 40 nM, and the concentration of SA-APC was 20 nM. They were mixed by gently inversion, and incubated at room temperature for 15 minutes. Then 400 nM of biotin was added. The mixture was mixed by gently inversion, and incubated at room temperature for 10 minutes;
b. Preparation of the desired amount of 2× Biotin-SRC1/SA-eu protein mixture: The concentration of Bioin-SRC1 was 40 nM, and the concentration of SA-eu was 20 nM. They were mixed by gently inversion, and incubated at room temperature for 15 minutes. Then 200 nM of biotin was added. The mixture was mixed by gently inversion, and incubated at room temperature for 10 minutes;
c. The protein mixtures prepared in step a and step b were mixed at a ratio of 1:1, and incubated at room temperature for 5 minutes;
d. 25 μL of the mixture from step c was added to the 384-well plate containing the test compound;
e. The mixture was centrifuged at 1000 rpm for one minute;
f. The mixture was incubated for 1 hour at room temperature.
(4) Data Collection and Calculation
After incubation at room temperature for 1 hour, the fluorescence values at 665 nm and 615 nm were measured with an EnVision plate reader, and the inhibition rate was calculated.
Inhibition rate %)=[(X−Min)/(Max−Min)]×100%
X is the fluorescence value ratio of “665/615” of the test compound; Min is the average value of “665/615” of the DMSO blank control; Max is the average value of “665/615” of the 10 μM SRC.

We go through 17 compounds from patent publication US20230067159A1, “ROR-GAMMA-T INHIBITOR, PREPARATION METHOD THEREOF AND USE THEREOF” (priority 2020, published 2023).

For the compound `CCS(=O)(=O)c1ccc([C@H](CO)NC(=O)c2ccc(N3C[C@@H](Oc4ccc(C(F)(F)F)cc4)C[C@H]3COC(F)F)cc2)cc1` [Example 39], in series [1], the half-life at 1.5 μM is 3.53 h and the CLint scaled (in general, the rate of metabolic loss divided by the concentration) at 1.5 μM is 8.2 mL/min/kg. In addition, in series [2], the half-life at 1.5 μM was 5.62 h and the CLint scaled at 1.5 μM was 7.4 mL/min/kg. In series [3], the bioavailability – broadly, dose-corrected exposure relative to a reference, in per cent – was found to be 35%; the AUC(0-t) (in general, the area under the concentration-time curve up to a stated or last time point) was 11.4 µM·h; the Cmax (commonly the peak of the concentration-time curve) was determined as 1500 nM; the half-life is 3.9 h. In addition, in series [4], it took 3 nM to reach half-maximal inhibition (IC50).

Regarding `CCS(=O)(=O)c1ccc([C@H](CO)NC(=O)c2ccc(N3C[C@@H](Oc4ccc(C(F)(F)F)cc4)C[C@H]3COC(F)(F)F)cc2)cc1` [Example 48, N—((R)-1-(4-(ethylsulfonyl)phenyl)-2-hydroxyethyl)-4-((2S,4S)-2-((trifluoromethoxy)methyl)-4-(4-(trifluoromethyl)phenoxy)pyrrolidin-1-yl)benzamide], in series [1], the half-life at 1.5 μM was found to be 10 h and the CLint scaled at 1.5 μM is 2.9 mL/min/kg. Further, in series [3], the bioavailability is 50%, the AUC(0-t) was 20.9 µM·h, the highest level (Cmax) was 1700 nM and the half-life is 11.4 h. For the same compound, inhibition in series [4] was half-maximal at 6.4 nM (IC50).

With `CCS(=O)(=O)c1ccc([C@H](CCO)NC(=O)c2ccc(N3C[C@@H](Oc4ccc(C(F)(F)F)cc4)C[C@H]3COC(F)F)cc2)cc1` [Example 91], in series [1], the half-life at 1.5 μM is 6.93 h and the CLint scaled at 1.5 μM turned out to be 4.2 mL/min/kg. Moreover, in series [2], the half-life at 1.5 μM turned out to be 2.37 h and the CLint scaled at 1.5 μM amounted to 38 mL/min/kg. In series [3], the bioavailability is 42%, the AUC(0-t) was 21 µM·h, the Cmax amounted to 1900 nM and the half-life is 7.6 h.

As for `CCS(=O)(=O)c1ccc([C@H](CO)NC(=O)c2cnc(N3C[C@H](Oc4ccc(C(F)(F)F)cc4)C[C@H]3COC(F)(F)F)nc2)cc1` [Example 95, N—((R)-1-(4-(ethylsulfonyl)phenyl)-2-hydroxyethyl)-2-((2S,4R)-2-((trifluoromethoxy)methyl)-4-(4-(trifluoromethyl)phenoxy)pyrrolidin-1-yl)pyrimidine-5-carboxamide], in series [4], the half-maximal inhibitory concentration (IC50) – broadly, the point on the concentration scale where inhibition reaches its midpoint – stood at 45 nM.

For `CCS(=O)(=O)c1ccc([C@H](CO)NC(=O)c2ccc(N3C[C@@H](Oc4ccc(C(F)(F)F)cc4)C[C@H]3COC(F)(F)F)cc2C#N)cc1` [Example 96, 2-cyano-N—((R)-1-(4-(ethylsulfonyl)phenyl)-2-hydroxyethyl)-4-((2S,4S)-2-((trifluoromethoxy)methyl)-4-(4-(trifluoromethyl)phenoxy)pyrrolidin-1-yl)benzamide], in series [4], the IC50 turned out to be 64 nM.

`CCS(=O)(=O)c1ccc([C@@H](CO)NC(=O)c2ccc(N3C[C@@H](Oc4ccc(C(F)(F)F)cc4)C[C@H]3COC(F)F)cc2)cc1` [Example 98]: the IC50 in series [4] was 17 nM.

In series [4], `CCS(=O)(=O)c1ccc(CNC(=O)c2ccc(N3C[C@@H](Oc4ccc(OC(F)(F)F)cn4)C[C@H]3COC(F)F)cc2)cc1` [Example 107] yielded an IC50 of 78 nM.

Consider `CCS(=O)(=O)c1ccc([C@H](CCO)NC(=O)c2ccc(N3C[C@@H](Oc4ccc(OC(F)(F)F)cn4)C[C@H]3COC(F)F)cc2)cc1` [Example 108], for which it took 6 nM to reach half-maximal inhibition in series [4] (IC50).

The compound `[2H]C([2H])([2H])OC[C@@H]1C[C@H](Oc2ccc(C(F)(F)F)cc2)CN1c1ccc(C(=O)NCc2ccc(S(=O)(=O)CC)cc2)cc1` [Example 109, N-(4-(ethylsulfonyl)benzyl)-4-((2S,4S)-2-(3,3,3-d3-methoxymethyl)-4-(4-(trifluoromethyl)phenoxy)pyrrolidin-1-yl)benzamide] displayed an IC50 in series [4] of 6.4 nM.

With `CCS(=O)(=O)c1ccc(CNC(=O)c2ccc(N3C[C@@H](Oc4ccc(OC(F)(F)F)cn4)C[C@H]3COC(F)F)nc2)cc1` [Example 110], the IC50 in series [4] came out at 11 nM.

`CCS(=O)(=O)c1ccc(CNC(=O)c2cnc(N3C[C@@H](Oc4ccc(OC(F)(F)F)cn4)C[C@H]3COC(F)F)c(F)c2)cc1` [Example 111]: the half-inhibitory concentration (IC50) in series [4] worked out at 5 nM.

In turn, `CCS(=O)(=O)c1ccc(CNC(=O)c2ccc(N3C[C@@H](Oc4ccc(OC(F)(F)F)cn4)C[C@H]3COC(F)F)cc2)nc1` [Example 112] had a half-inhibitory concentration (IC50) in series [4] of 8 nM.

Regarding `CCS(=O)(=O)c1ccc(CNC(=O)c2cnc(N3C[C@@H](Oc4ccc(Cl)cn4)C[C@H]3COC(F)F)c(F)c2)nc1` [Example 113, 6-((2S,4S)-4-((5-chloropyridin-2-yl)oxy)-2-((difluoromethoxy)methyl)pyrrolidin-1-yl)-N-((5-(ethylsulfonyl)pyridin-2-yl)methyl)-5-fluoronicotinamide], in series [4], inhibition was half-maximal at 6.2 nM (IC50).

For the compound `CCS(=O)(=O)c1ccc([C@H](CCO)NC(=O)c2ccc(N3C[C@H](Oc4ccc(OC(F)(F)F)cc4)C[C@H]3COC(F)F)nc2)cc1` [Example 115], it took 13 nM to reach half-maximal inhibition in series [4] (IC50).

`CCS(=O)(=O)c1ccc([C@H](CCO)NC(=O)c2cnc(N3C[C@@H](Oc4ccc(OC(F)(F)F)cc4)C[C@H]3COC(F)F)c(F)c2)cc1` [Example 116] had an IC50 in series [4] of 10 nM.

In the case of `CCS(=O)(=O)c1ccc([C@H](CCO)NC(=O)c2ccc(N3C[C@@H](Oc4ccc(OC(F)(F)F)cc4)C[C@H]3CF)cc2)cc1` [Example 117, N—((S)-1-(4-(ethylsulfonyl)phenyl)-3-hydroxypropyl)-4-((2S,4S)-2-(fluoromethyl)-4-(4-(trifluoromethoxy)phenoxy)pyrrolidin-1-yl)benzamide], in series [2], the half-life at 1.5 μM turned out to be 6.12 h and the CLint scaled at 1.5 μM turned out to be 3.8 mL/min/kg. In series [4], this compound came in with an IC50 of 14 nM.

In series [4], `CCS(=O)(=O)c1ccc([C@H](CCOP(=O)(O)O)NC(=O)c2ccc(N3C[C@@H](Oc4ccc(OC(F)(F)F)cc4)C[C@H]3COC(F)F)cc2)cc1` [Example 125, sodium (S)-3-(4-((2S,4S)-2-((difluoromethoxy)methyl)-4-(4-(trifluoromethoxy)phenoxy)pyrrolidin-1-yl)benzamino)-3-(4-(ethylsulfonyl)phenyl)propyl phosphate] returned an IC50 of 140 nM.
